Assays:
Settings in all cases: exposure time: 72 h
E31 [1] = patient-derived glioblastoma stem cells of proneural subtype; assay: surviving fraction (nuclei count normalised to DMSO); higher = more cells surviving (less toxic)
E21 [2] = patient-derived glioblastoma stem cells of mesenchymal subtype; assay: as above
E13 [3] = patient-derived glioblastoma stem cells of classical subtype; assay: as above
E28 [4] = patient-derived glioblastoma stem cells of classical subtype; assay: as above
FT3469 [5] = normal neural stem cell line; assay: as above
E34 [6] = patient-derived glioblastoma stem cells of proneural subtype; assay: as above
E57 [7] = patient-derived glioblastoma stem cells of mesenchymal subtype; assay: as above
E31 [8] = assay: phenotypic distance (Euclidean, principal components) from DMSO controls (arbitrary units); higher = stronger morphological change
E21 [9] = assay: as above
E13 [10] = assay: as above
E28 [11] = assay: as above
FT3469 [12] = assay: as above
E34 [13] = assay: as above
E57 [14] = assay: as above
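For phenotypic distance (Euclidean, principal components) from DMSO controls in this document: cell Painting imaging in 384-well plates, CellProfiler features reduced to at least 20 principal components, Euclidean distance versus same-plate DMSO vehicle wells (0.1% v/v), median over six images per well.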
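For surviving fraction (nuclei count normalised to DMSO) in this document: nuclei counted by high-content imaging of Hoechst-stained cells in laminin-coated 384-well plates, relative to 0.1% DMSO vehicle wells, with staurosporine as cell-death control.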

SMILES: COC(=O)C[C@](O)(CCCC(C)(C)O)C(=O)O[C@@H]1C(OC)=C[C@]23CCCN2CCc2cc4c(cc2[C@H]13)OCO4 [Homoharringtonine]
- surviving fraction (E31 [1]; 4.1 nM): 0.502
- surviving fraction (E31 [1]; 12.3 nM): 0.372
- surviving fraction (E31 [1]; 37 nM): 0.226
- surviving fraction (E31 [1]; 111.1 nM): 0.218
- surviving fraction (E31 [1]; 333.3 nM): 0.209
- surviving fraction (E31 [1]; 1000 nM): 0.164
- surviving fraction (E31 [1]; 3000 nM): 0.171
- surviving fraction (E21 [2]; 4.1 nM): 0.726
- surviving fraction (E21 [2]; 12.3 nM): 0.721
- surviving fraction (E21 [2]; 37 nM): 0.289
- surviving fraction (E21 [2]; 111.1 nM): 0.402
- surviving fraction (E21 [2]; 333.3 nM): 0.186
- surviving fraction (E21 [2]; 1000 nM): 0.179
- surviving fraction (E21 [2]; 3000 nM): 0.0999
- surviving fraction (E13 [3]; 4.1 nM): 0.73
- surviving fraction (E13 [3]; 12.3 nM): 0.702
- surviving fraction (E13 [3]; 37 nM): 0.367
- surviving fraction (E13 [3]; 111.1 nM): 0.401
- surviving fraction (E13 [3]; 333.3 nM): 0.316
- surviving fraction (E13 [3]; 1000 nM): 0.239
- surviving fraction (E13 [3]; 3000 nM): 0.0816
- surviving fraction (E28 [4]; 4.1 nM): 0.694
- surviving fraction (E28 [4]; 12.3 nM): 0.573
- surviving fraction (E28 [4]; 37 nM): 0.334
- surviving fraction (E28 [4]; 111.1 nM): 0.41
- surviving fraction (E28 [4]; 333.3 nM): 0.336
- surviving fraction (E28 [4]; 1000 nM): 0.343
- surviving fraction (E28 [4]; 3000 nM): 0.282
- surviving fraction (FT3469 [5]; 4.1 nM): 0.701
- surviving fraction (FT3469 [5]; 12.3 nM): 0.669
- surviving fraction (FT3469 [5]; 37 nM): 0.604
- surviving fraction (FT3469 [5]; 111.1 nM): 0.589
- surviving fraction (FT3469 [5]; 333.3 nM): 0.536
- surviving fraction (FT3469 [5]; 1000 nM): 0.53
- surviving fraction (FT3469 [5]; 3000 nM): 0.436
- surviving fraction (E34 [6]; 4.1 nM): 0.844
- surviving fraction (E34 [6]; 12.3 nM): 0.873
- surviving fraction (E34 [6]; 37 nM): 0.505
- surviving fraction (E34 [6]; 111.1 nM): 0.553
- surviving fraction (E34 [6]; 333.3 nM): 0.434
- surviving fraction (E34 [6]; 1000 nM): 0.412
- surviving fraction (E34 [6]; 3000 nM): 0.337
- surviving fraction (E57 [7]; 4.1 nM): 0.931
- surviving fraction (E57 [7]; 12.3 nM): 0.677
- surviving fraction (E57 [7]; 37 nM): 0.207
- surviving fraction (E57 [7]; 111.1 nM): 0.215
- surviving fraction (E57 [7]; 333.3 nM): 0.102
- surviving fraction (E57 [7]; 1000 nM): 0.0784
- surviving fraction (E57 [7]; 3000 nM): 0.0251
- phenotypic distance (E31 [8]; 4.1 nM): 1.9
- phenotypic distance (E31 [8]; 12.3 nM): 2.41
- phenotypic distance (E31 [8]; 37 nM): 3.5
- phenotypic distance (E31 [8]; 111.1 nM): 4.14
- phenotypic distance (E31 [8]; 333.3 nM): 4.68
- phenotypic distance (E31 [8]; 1000 nM): 5.99
- phenotypic distance (E31 [8]; 3000 nM): 5.88
- phenotypic distance (E21 [9]; 4.1 nM): 1.39
- phenotypic distance (E21 [9]; 12.3 nM): 1.73
- phenotypic distance (E21 [9]; 37 nM): 4.36
- phenotypic distance (E21 [9]; 111.1 nM): 3.63
- phenotypic distance (E21 [9]; 333.3 nM): 4.11
- phenotypic distance (E21 [9]; 1000 nM): 5.37
- phenotypic distance (E21 [9]; 3000 nM): 8.36
- phenotypic distance (E13 [10]; 4.1 nM): 1.66
- phenotypic distance (E13 [10]; 12.3 nM): 2.13
- phenotypic distance (E13 [10]; 37 nM): 4.35
- phenotypic distance (E13 [10]; 111.1 nM): 3.97
- phenotypic distance (E13 [10]; 333.3 nM): 5.67
- phenotypic distance (E13 [10]; 1000 nM): 7.51
- phenotypic distance (E13 [10]; 3000 nM): 8.63
- phenotypic distance (E28 [11]; 4.1 nM): 1.42
- phenotypic distance (E28 [11]; 12.3 nM): 1.38
- phenotypic distance (E28 [11]; 37 nM): 2.63
- phenotypic distance (E28 [11]; 111.1 nM): 1.37
- phenotypic distance (E28 [11]; 333.3 nM): 2.87
- phenotypic distance (E28 [11]; 1000 nM): 3.53
- phenotypic distance (E28 [11]; 3000 nM): 4.17
- phenotypic distance (FT3469 [12]; 4.1 nM): 1.22
- phenotypic distance (FT3469 [12]; 12.3 nM): 1.49
- phenotypic distance (FT3469 [12]; 37 nM): 1.36
- phenotypic distance (FT3469 [12]; 111.1 nM): 2
- phenotypic distance (FT3469 [12]; 333.3 nM): 1.75
- phenotypic distance (FT3469 [12]; 1000 nM): 2.95
- phenotypic distance (FT3469 [12]; 3000 nM): 3.51
- phenotypic distance (E34 [13]; 4.1 nM): 1.44
- phenotypic distance (E34 [13]; 12.3 nM): 1.62
- phenotypic distance (E34 [13]; 37 nM): 2.68
- phenotypic distance (E34 [13]; 111.1 nM): 3.86
- phenotypic distance (E34 [13]; 333.3 nM): 3.89
- phenotypic distance (E34 [13]; 1000 nM): 4.65
- phenotypic distance (E34 [13]; 3000 nM): 6.65
- phenotypic distance (E57 [14]; 4.1 nM): 1.28
- phenotypic distance (E57 [14]; 12.3 nM): 2.53
- phenotypic distance (E57 [14]; 37 nM): 4.58
- phenotypic distance (E57 [14]; 111.1 nM): 4.46
- phenotypic distance (E57 [14]; 333.3 nM): 6.69
- phenotypic distance (E57 [14]; 1000 nM): 8.52
- phenotypic distance (E57 [14]; 3000 nM): 8.81

SMILES: CC[C@@]1(O)C(=O)OCc2c1cc1n(c2=O)Cc2cc3cc(O)ccc3nc2-1 [Hydroxy Camptothecine]
- surviving fraction (E31 [1]; 4.1 nM): 0.159
- surviving fraction (E31 [1]; 12.3 nM): 0.166
- surviving fraction (E31 [1]; 37 nM): 0.174
- surviving fraction (E31 [1]; 111.1 nM): 0.231
- surviving fraction (E31 [1]; 333.3 nM): 0.223
- surviving fraction (E31 [1]; 1000 nM): 0.203
- surviving fraction (E31 [1]; 3000 nM): 0.201
- surviving fraction (E21 [2]; 4.1 nM): 0.133
- surviving fraction (E21 [2]; 12.3 nM): 0.115
- surviving fraction (E21 [2]; 37 nM): 0.12
- surviving fraction (E21 [2]; 111.1 nM): 0.161
- surviving fraction (E21 [2]; 333.3 nM): 0.135
- surviving fraction (E21 [2]; 1000 nM): 0.106
- surviving fraction (E21 [2]; 3000 nM): 0.119
- surviving fraction (E13 [3]; 4.1 nM): 0.295
- surviving fraction (E13 [3]; 12.3 nM): 0.298
- surviving fraction (E13 [3]; 37 nM): 0.269
- surviving fraction (E13 [3]; 111.1 nM): 0.241
- surviving fraction (E13 [3]; 333.3 nM): 0.178
- surviving fraction (E13 [3]; 1000 nM): 0.197
- surviving fraction (E13 [3]; 3000 nM): 0.141
- surviving fraction (E28 [4]; 4.1 nM): 0.341
- surviving fraction (E28 [4]; 12.3 nM): 0.331
- surviving fraction (E28 [4]; 37 nM): 0.313
- surviving fraction (E28 [4]; 111.1 nM): 0.331
- surviving fraction (E28 [4]; 333.3 nM): 0.268
- surviving fraction (E28 [4]; 1000 nM): 0.219
- surviving fraction (E28 [4]; 3000 nM): 0.151
- surviving fraction (FT3469 [5]; 4.1 nM): 0.616
- surviving fraction (FT3469 [5]; 12.3 nM): 0.73
- surviving fraction (FT3469 [5]; 37 nM): 0.51
- surviving fraction (FT3469 [5]; 111.1 nM): 0.563
- surviving fraction (FT3469 [5]; 333.3 nM): 0.489
- surviving fraction (FT3469 [5]; 1000 nM): 0.442
- surviving fraction (FT3469 [5]; 3000 nM): 0.445
- surviving fraction (E34 [6]; 4.1 nM): 0.494
- surviving fraction (E34 [6]; 12.3 nM): 0.492
- surviving fraction (E34 [6]; 37 nM): 0.608
- surviving fraction (E34 [6]; 111.1 nM): 0.446
- surviving fraction (E34 [6]; 333.3 nM): 0.509
- surviving fraction (E34 [6]; 1000 nM): 0.496
- surviving fraction (E34 [6]; 3000 nM): 0.569
- surviving fraction (E57 [7]; 4.1 nM): 0.14
- surviving fraction (E57 [7]; 12.3 nM): 0.165
- surviving fraction (E57 [7]; 37 nM): 0.148
- surviving fraction (E57 [7]; 111.1 nM): 0.157
- surviving fraction (E57 [7]; 333.3 nM): 0.144
- surviving fraction (E57 [7]; 1000 nM): 0.136
- surviving fraction (E57 [7]; 3000 nM): 0.13
- phenotypic distance (E31 [8]; 4.1 nM): 3.54
- phenotypic distance (E31 [8]; 12.3 nM): 2.94
- phenotypic distance (E31 [8]; 37 nM): 3.69
- phenotypic distance (E31 [8]; 111.1 nM): 2.96
- phenotypic distance (E31 [8]; 333.3 nM): 3.02
- phenotypic distance (E31 [8]; 1000 nM): 4.3
- phenotypic distance (E31 [8]; 3000 nM): 4.23
- phenotypic distance (E21 [9]; 4.1 nM): 4.52
- phenotypic distance (E21 [9]; 12.3 nM): 4.56
- phenotypic distance (E21 [9]; 37 nM): 5.14
- phenotypic distance (E21 [9]; 111.1 nM): 4.89
- phenotypic distance (E21 [9]; 333.3 nM): 4.81
- phenotypic distance (E21 [9]; 1000 nM): 5.63
- phenotypic distance (E21 [9]; 3000 nM): 5.74
- phenotypic distance (E13 [10]; 4.1 nM): 5.76
- phenotypic distance (E13 [10]; 12.3 nM): 6.4
- phenotypic distance (E13 [10]; 37 nM): 5.69
- phenotypic distance (E13 [10]; 111.1 nM): 6.9
- phenotypic distance (E13 [10]; 333.3 nM): 6.25
- phenotypic distance (E13 [10]; 1000 nM): 6.56
- phenotypic distance (E13 [10]; 3000 nM): 6.55
- phenotypic distance (E28 [11]; 4.1 nM): 3
- phenotypic distance (E28 [11]; 12.3 nM): 2.79
- phenotypic distance (E28 [11]; 37 nM): 3.94
- phenotypic distance (E28 [11]; 111.1 nM): 2.28
- phenotypic distance (E28 [11]; 333.3 nM): 3.33
- phenotypic distance (E28 [11]; 1000 nM): 3.32
- phenotypic distance (E28 [11]; 3000 nM): 3.06
- phenotypic distance (FT3469 [12]; 4.1 nM): 1.58
- phenotypic distance (FT3469 [12]; 12.3 nM): 1.79
- phenotypic distance (FT3469 [12]; 37 nM): 2.15
- phenotypic distance (FT3469 [12]; 111.1 nM): 1.67
- phenotypic distance (FT3469 [12]; 333.3 nM): 2.41
- phenotypic distance (FT3469 [12]; 1000 nM): 3.08
- phenotypic distance (FT3469 [12]; 3000 nM): 3.19
- phenotypic distance (E34 [13]; 4.1 nM): 3.37
- phenotypic distance (E34 [13]; 12.3 nM): 3.46
- phenotypic distance (E34 [13]; 37 nM): 1.84
- phenotypic distance (E34 [13]; 111.1 nM): 2.93
- phenotypic distance (E34 [13]; 333.3 nM): 2.95
- phenotypic distance (E34 [13]; 1000 nM): 3.66
- phenotypic distance (E34 [13]; 3000 nM): 3.13
- phenotypic distance (E57 [14]; 4.1 nM): 6.51
- phenotypic distance (E57 [14]; 12.3 nM): 6.72
- phenotypic distance (E57 [14]; 37 nM): 6.63
- phenotypic distance (E57 [14]; 111.1 nM): 5.99
- phenotypic distance (E57 [14]; 333.3 nM): 6.28
- phenotypic distance (E57 [14]; 1000 nM): 6.33
- phenotypic distance (E57 [14]; 3000 nM): 5.89

Reference: the supplement of paper PMC13207355
